From publication PMC11311998, “AR71, Histamine H3 Receptor Ligand—In Vitro and In Vivo Evaluation (Anti-Inflammatory Activity, Metabolic Stability, Toxicity, and Analgesic Action)” (International Journal of Molecular Sciences, 2024)

Key:
hH3R = biological target: T1, hH3R (Homo sapiens, UniProt Q9Y5N1); experiment: cAMP accumulation assay in HEK 293 cells stably expressing the hH3R; format: cell-based
T1 construct: expressed in transfected cells; host or cells: HEK 293 cells stably expressing hH3R, provided by Dr Thierry Calmels, Bioprojet-Biotech (France)
T1 sequence (Q9Y5N1 whole entry): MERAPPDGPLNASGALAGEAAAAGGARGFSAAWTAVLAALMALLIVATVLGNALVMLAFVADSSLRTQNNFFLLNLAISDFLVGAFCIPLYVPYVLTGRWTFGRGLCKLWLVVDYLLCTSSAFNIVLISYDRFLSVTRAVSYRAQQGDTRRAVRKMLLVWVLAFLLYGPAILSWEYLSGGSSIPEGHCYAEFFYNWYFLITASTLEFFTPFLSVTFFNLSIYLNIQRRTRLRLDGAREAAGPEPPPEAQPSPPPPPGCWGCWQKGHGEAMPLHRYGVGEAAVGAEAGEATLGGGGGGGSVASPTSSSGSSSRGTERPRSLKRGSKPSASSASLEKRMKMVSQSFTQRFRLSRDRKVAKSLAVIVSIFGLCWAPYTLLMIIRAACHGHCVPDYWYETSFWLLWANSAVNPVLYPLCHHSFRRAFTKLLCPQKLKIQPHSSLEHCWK
Method: The intrinsic activity of AR71 was evaluated in a 3′,5′-cyclic adenosine monophosphate (cAMP) accumulation assay in human embryonic kidney (HEK) 293 cells, stably expressing the hH3R [42].
The intrinsic activity of AR71 was evaluated in a 3′,5′-cyclic adenosine monophosphate (cAMP) accumulation assay in human embryonic kidney (HEK) 293 cells, stably expressing the hH3R [42], using the LANCE Ultra cAMP kit (Perkin Elmer, Waltham, MA, USA). The applied method was intended to measure the levels of cAMP generated because of changes in adenylyl cyclase activity mediated by GPCRs. The assay is based on the competition between the europium (Eu) chelate-labelled cAMP tracer and sample cAMP for binding sites on cAMP-specific monoclonal antibodies labelled with the ULight dye. The effect of AR71 (concentrations: 10^−10–10^−5 M) on reversing the inhibition of cAMP production by (R)-(-)-α-methyl histamine (30 nM) in forskolin-stimulated (10 μM) cells was evaluated. The experiment was conducted according to the principles described earlier. Experiments were performed three times in triplicates, and IC50 values were determined using GraphPad Prism 8.4.3 software.
Figure S1. Forskolin-stimulated cAMP accumulation studies in HEK 293 cells expressing the human histamine H3
receptor, co-treated with (R)(-)-α-Methylhistamine […] and AR71 (30 nM). […]

SH-SY5Y cells = format: cell-based, human; conditions: without rotenone
Method: To test neuroprotective activity, SH-SY5Y cells were pre-treated for 1 h with various concentrations of AR71, after which rotenone (6.25 μM) was added and the cells were cultured for another 24 h. […] Co-treatment with AR71 protected cells from the toxic effect of rotenone, resulting in LDH leakage ranging from 10 to 22% only.
The protective effect of AR71 against rotenone-induced toxicity in SH-SY5Y cells was assessed by measuring LDH release. SH-SY5Y cells (6 × 10^3 cells/100 μL/well) were seeded in black 96-well plates Nunclon^TM Delta Surface no. 137101 (ThermoFischer Scientific, Waltham, MA, USA) and cultured overnight. The next day, the medium was removed and replaced with a fresh one with an increasing concentration of AR71 (0.0975–50 μM). After 1 h of compound pre-treatment, the neurotoxin rotenone (6.25 μM) was added, and the cells were cultured for another 24 h. For the negative and positive controls, cells were treated with 0.1% DMSO and 6.25 μM of rotenone alone, respectively. The cells treated with the compound alone were used to compare the effect with those co-treated with rotenone. After 24 h, the level of LDH leakage was measured by the CytoTox-ONE™ Homogeneous Membrane Integrity Assay (Promega, Madison, WI, USA) following the manufacturer’s protocol. Briefly, 100 μL of CytoTox-ONE™ reagent (Promega, Madison, WI, USA) was added to each well, and the cells were incubated for 10 min at room temperature protected from light. The fluorescence was measured using the multimode plate reader Tecan Spark (Tecan, Männedorf, Switzerland) with an excitation wavelength of 560 nm and an emission wavelength of 590 nm.

CCI-exposed mice [1] = experiment: cold plate test in CCI neuropathic pain model; format: in vivo, mouse
Method: (§1) The effects of a single intraperitoneal (i.p.) injection of AR71 at doses of 5, 10, and 20 mg/kg on mechanical (von Frey test) and thermal (cold plate and tail flick tests) stimulus were evaluated on day 14 following sciatic nerve injury (Figure 15). There were seven to eight animals per group. All these tests were performed in three time series after the administration of the compound. In the case of the von Frey test—after 30, 90, and 180 min; the cold plate test—after 35, 95, and 185 min; and the tail flick test—after 40, 100, and 190 min.
The mice were randomly divided into four experimental groups. […] All data from behavioural tests were analysed using a one-way ANOVA with Bonferroni’s multiple comparison post hoc test. […]
The cold plate test (performed by the Cold/Hot Plate Analgesia Meter, Columbus Instruments, N. Hague Ave, Columbus, OH, USA) was used to assess sensitivity to noxious thermal stimuli. […] The mice were placed on a cold plate, and the time it took to lift the injured paw was recorded.

CCI-exposed mice [2] = experiment: tail flick test in CCI neuropathic pain model; format: in vivo, mouse; conditions: 20 mg/kg i.p.
Method: as §1
The mice were randomly divided into four experimental groups. One group received a vehicle treatment (10% DMSO/10%(2-Hydroxypropyl)-β-cyclodextrin/water for injection, i.p.), while the other three groups were administered with AR71 at doses of 5, 10, or 20 mg/kg of body weight (b.w.), i.p. Baseline measurements for all tests were conducted before the compounds were injected, and the results are presented as percentages of the maximal possible effect (% MPE). […] All data from behavioural tests were analysed using a one-way ANOVA with Bonferroni’s multiple comparison post hoc test. […]
Tail flick latency was measured on the dorsal part of the tail at two-thirds of its length by applying a focused beam of light (thermal stimulus). The time interval between the thermal stimulus’s onset and the tail’s withdrawal from the beam was recorded. […]

## COc1cc(/C=C/C(=O)c2ccc(OCCCN3CCCCC3)cc2)cc(OC)c1OC [AR71, (E)-3-(3,4,5-trimethoxyphenyl)-1-(4-(3-(piperidin-1-yl)propoxy)phenyl)prop-2-en-1-one]
hH3R; counteracts inhibition of cAMP production by (R)-(-)-α-methyl histamine in forskolin-stimulated cells
  intrinsic activity profile at H3R: H3R antagonist/inverse agonist
hH3R; reversal of inhibition of cAMP production by (R)-(-)-α-methyl histamine (30 nM) in forskolin-stimulated (10 μM) cells
  IC50: 0.0835 ± 0.0119 µM
SH-SY5Y cells; 50 μM
  LDH leakage compared with control cells: ~60%
SH-SY5Y cells; 0.0975–25 μM
  effect on cell membrane integrity (LDH): did not disturb the cell membrane
CCI-exposed mice [1]; 5, 10 and 20 mg/kg i.p., 35 min (5 mg/kg p < 0.05; 10 and 20 mg/kg p < 0.001)
  effect in cold plate test vs control: Analgesic effects
CCI-exposed mice [1]; 95 and 185 min after injection, 10 and 20 mg/kg i.p.
  effect in cold plate test vs control: only the two higher doses were effective
CCI-exposed mice [2]; 100 and 190 min (p < 0.001 and p < 0.01)
  effect in tail flick test vs vehicle: significant pain-relieving effects
CCI-exposed mice [2]; 40 min post-injection, p < 0.05
  effect in tail flick test vs vehicle: significant analgesic effect
